Columns and labels:
[1] = test system: panel of 60 human tumor cell lines; test: NCI standard human tumor cell line panel (60 cell lines); assay type: cell-based; conditions: for activity against human cancer cell lines: panel of human cancer cell lines employed by NCI
From the text: Current research in the control of cancer in the United States is coordinated by the National Cancer Institute (NCI). To determine whether a substance has anti-cancer properties, the NCI has established a systematic protocol. […] The protocol, and the established statistical means for analyzing the results obtained by the standardized testing are fully described in the literature. See: Boyd, Dr. Michael R., Principles & Practice of Oncology, PPO Updates, Volume 3, Number 10, Oct. 1989, for an in depth description of the testing protocol; and Paull, K. D., "Display and Analysis of Patterns of Differential Activity of Drugs Against Human Tumor Cell Lines; Development of Mean Graph and COMPARE Algorithm", Journal of the National Cancer Institute Reports, Vol. 81, No. 14, Page 1088, Jul. 14, 1989 for a description of the methods of statistical analysis. Both of these references are incorporated herein by this reference thereto.

[2] = test system: P388 lymphocytic leukemia cell line; test: P388 lymphocytic leukemia (PS) cell line growth inhibition in vitro; assay type: cell-based, murine
[3] = test system: P388 lymphocytic leukemia cell line; conditions: first chemical study, Pettit et al., J. Am. Chem. Soc 1988; cited from earlier work

| Compound | activity against other NCI cell lines ([1]; other NCI cell lines) | activity against human cancer cell lines [1] | activity against human cancer cell lines ([1]; listed as cephalostatin 9) | activity against murine P388 lymphocytic leukemia (PS system) [2] | P388 ED50 [3] |
| --- | --- | --- | --- | --- | --- |
| CC1[C@@H]2CC=C3C4CCC5Cc6nc7c(nc6C[C@@]5(C)C4CC(=O)[C@]32CO[C@@]1(O)C(O)CC(C)(C)O)CC1CCC2C3=C[C@H]4O[C@@]5(O[C@@](C)(CO)C[C@@H]5O)C(C)[C@@]4(O)[C@]3(C)[C@@H](O)CC2[C@]1(C)C7 (some centres unmarked) [Cephalostatin 9] | confirmed active level | powerful inhibitors of various human tumor cell lines | very strong and selective activity | confirmed active level |  |
| C[C@@H]1[C@]2(O[C@H]3C=C4[C@@H]5CC[C@H]6Cc7nc8c(nc7C[C@]6(C)[C@H]5C[C@@H](O)[C@]4(C)[C@]31O)C[C@@H]1CC[C@H]3C4=CC[C@@H]5[C@H](C)[C@@]6(OC[C@]45C(=O)C[C@@H]3[C@@]1(C)C8)OC(C)(C)C[C@H]6O)O[C@](C)(CO)C[C@H]2O [cephalostatin 1] |  |  |  |  | 10^-7 to 10^-9 μg/mL |
